Test results reported in US6652890B2, “Tea catechins as cancer specific proliferation inhibitors” (Purdue Research Foundation, priority 1999, dated 2003).
Entries after “also recorded” stand apart in the source; their conditions may differ. Read-outs that look alike come from different tables or passages of the source.

How the values were obtained:
[1] = system: BT-20 human mammary adenocarcinoma cells; assay: Effect on intact cells in culture (growth, morphology, DAPI); assay type: cell-based
Method: BT-20 human breast adenocarcinoma cells were cultured in Eagle's minimal essential medium nonessential amino acids and Earle's balanced salts supplement with 10% fetal bovine serum. Media were renewed as for MCF-10A cells. […] The coverslips were rinsed and the cells fixed in methanol followed by addition of fluorescent dye 4′,6-diamidino-2-phenylindole (DAPI) as described (Wolvetang et al., 1994, FEBS Lett. 339:40-44). Cells were observed and photographed at a primary magnification of 400×.

[2] = system: HeLa (human cervical carcinoma) cells; assay: as above; assay type: cell-based; conditions: for IC50: read-out: EGCg concentration for 50% growth arrest, FIG. 8
Method: HeLa (ATCC CCL2) cells were grown in 175 cm^2 flasks in Minimal Essential Medium (Gibco), pH 7.4, at 37° C. with 10% bovine calf serum (heat-inactivated), plus 50 mg/l gentamycin sulfate (Sigma). […] The coverslips were rinsed and the cells fixed in methanol followed by addition of fluorescent dye 4′,6-diamidino-2-phenylindole (DAPI) as described (Wolvetang et al., 1994, FEBS Lett. 339:40-44). Cells were observed and photographed at a primary magnification of 400×. HeLa (ATCC CCL2) cells were grown in 150 cm^2 flasks in Minimal Essential Medium (Gibco), pH 7.4, at 37° C. with 10% bovine calf serum (heat-inactivated), plus 50 mg/l gentamicin sulfate (Sigma).

tNOX = assay: Inhibition of tNOX activity of sera pooled from patients with cancer; assay type: biochemical, human
Method: NADH oxidase activity was determined as the disappearance of NADH measured at 340 nm in a reaction mixture containing 25 mM Tris-Mes buffer (pH 7.2), 1 mM KCN to inhibit low levels of mitochondrial oxidase activity, and […] at 37° C. with stirring. Activity was measured using a Hitachi U3210 or SLM Aminco DW2000 spectrophotometer with continuous recording over two intervals of 5 min each. A millimolar extinction coefficient of 6.22 was used to determine specific activity.
Authentic EGCg (Sigma) was used as the standard.
All chemicals were from Sigma (St. Louis, Mo.) unless otherwise specified. EGF was from mouse, culture grade, from Upstate Biotechnology Inc. (Lake Placid, N.Y.). Tea infusions were prepared by sequential steeping of ca. 2-g bags of tea (Lipton) in 10 ml of water for 10 min each. At the end of the infusion, bags were pressed to remove liquid.

[3] = system: 4T1 metastatic mouse mammary cancer cells; assay: Killing of 4T1 metastatic mouse mammary cancer cells in culture; assay type: cell-based; conditions: EGCg 10^−7 M, EC 10^−4 M, alone or combined
CNOX = target: T1, CNOX (Mus musculus, UniProt Q8BHR2); assay: CNOX activity of intact 4T1 cells; assay type: cell-based; conditions: not effective up to and including this concentration
T1 construct: endogenous in cells; host or cells: 4T1 mouse mammary carcinoma cells (intact)
T1 sequence (Q8BHR2 1-643): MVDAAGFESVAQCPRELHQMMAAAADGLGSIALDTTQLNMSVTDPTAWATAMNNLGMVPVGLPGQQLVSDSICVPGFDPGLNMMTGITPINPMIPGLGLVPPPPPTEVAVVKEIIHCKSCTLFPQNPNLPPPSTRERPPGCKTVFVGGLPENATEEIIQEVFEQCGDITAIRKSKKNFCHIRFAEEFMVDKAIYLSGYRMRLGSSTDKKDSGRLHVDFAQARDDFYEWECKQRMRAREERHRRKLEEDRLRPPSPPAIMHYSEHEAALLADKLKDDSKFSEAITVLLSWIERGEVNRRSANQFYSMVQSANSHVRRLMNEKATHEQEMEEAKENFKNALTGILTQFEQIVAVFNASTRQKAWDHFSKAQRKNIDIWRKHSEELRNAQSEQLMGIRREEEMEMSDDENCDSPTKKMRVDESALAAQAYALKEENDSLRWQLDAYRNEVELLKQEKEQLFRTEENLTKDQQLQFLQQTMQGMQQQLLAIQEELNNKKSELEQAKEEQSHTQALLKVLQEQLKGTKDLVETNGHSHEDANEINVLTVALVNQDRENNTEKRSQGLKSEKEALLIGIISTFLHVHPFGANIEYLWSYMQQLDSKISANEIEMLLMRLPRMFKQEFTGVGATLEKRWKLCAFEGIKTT
Method: A mouse mammary tumor subpopulation line 4T1 arising from a BALB/cf C3H mouse was grown in DME-10, Dulbecco's modified Eagle's medium supplemented with 5% fetal calf serum, 5% newborn calf serum, 1 mM mixed non-essential amino acids, 2 mM L-glutamine, penicillin (100 units/ml), and streptomycin (100 μg/ml) (Miller et al., 1987, Brit. J. Can. 56:561-569 and Miller et al., 1990, Invasion Metastasis 10:101-112).
NADH oxidase activity was determined as the disappearance of NADH measured at 340 nm in a reaction mixture containing 25 mM Tris-Mes buffer (pH 7.2), 1 mM KCN, and 150 μM NADH at 37° C. Activity was measured at 340 nm with reference at 430 nm using an SLM Aminco DW-2000 spectrophotometer (Milton Roy, Rochester, N.Y.) in the dual beam mode of operation with stirring and continuous recording over two intervals of 5 min each. A millimolar extinction coefficient of 6.22 was used to determine specific activity.

[4] = 10 μM EGCg added at t=0, 96 h, FIG. 4
[5] = 10^−6 M EGCg twice daily for 96 h

- IC50 ([2]; 72 h, in the absence of EC): 10 µM
- IC50 ([2]; 72 h, in the presence of 10^−4 M EC): 0.1 µM
- EC50 (tNOX): 2 µM
- Concentration effective in inhibiting the residual CNOX activity (CNOX): > 10^−6 M
Substance: (−) - epigallocatechin gallate [EGCg]
- Fate of treated cells [1, 4]: did not recover and died; also recorded: stopped growing and died
- Reduction of cell diameter [1, 5]: about 25%
- Reduction of cell number [1, 5]: about 25%
- Reduction of cell volume [1, 5]: 50%
- Response of the cell line ([1]; 10^−6 M EGCg, 72 h): no response
- Condensed chromatin (DAPI staining) ([1]; 10 or 50 μM EGCg, 96 h, FIG. 5): characteristic of apoptosis
- Fate of treated cells [2, 4]: did not recover and died; also recorded: stopped growing and died
- Reduction of cell diameter [2, 5]: about 25%
- Reduction of cell number [2, 5]: about 25%
- Reduction of cell volume [2, 5]: 50%
- Response of the cell line ([2]; 10^−6 M EGCg, 72 h): no response
- Condensed chromatin (DAPI staining) ([2]; 10 or 50 μM EGCg, 96 h, FIG. 5): characteristic of apoptosis
- Growth of HeLa cells ([2]; EGCg): almost completely inhibited
- EGCg (tNOX; EGCg content at the EC50): 1 µg/mL
- Increase in cell number cm^−2 over 72 h · 10^2 [3]: 520 cm^−2 · 10^2
